From patent US7312358B2, “Pharmaceutically active sulfanilide derivatives” (Laboratoires Serono SA, priority 2000, dated 2007) come the findings set out here.

Molecules are shown by their SMILES.

One assay deals with hV1a (Homo sapiens, UniProt P37288). As to the kind of experiment: In vitro competition binding assay on hV1a receptor with scintillating proximity assay. Set-up: expressed in transfected cells; host or cells: CHO cells (membranes). Particulars: membranes from CHO cells expressing hV1a receptor; radiolabel [125I]-LVA; SPA; read-out: Binding Affinity Human V1a Ki. As for the experimental part: b) In Vitro Competition Binding Assay on hV1a Receptor with Scintillating Proximity Assay
This assays allows to determine the affinity of the test compounds for the V1a receptor. Membranes from CHO cells expressing the hV1a receptor were resuspended in buffer containing 50 mM Tris-HCl, pH 7.4, 5 mM MgCl2 and 0.1% BSA (w/v). The membranes (5-10 μg) were mixed with 0.2 mg wheat-germ aglutinin (WGA) SPA bead (type A) and 0.03 nM of the radiolabel [^125I]-LVA (LVA being Linear Vasopressin Antagonist and is an analogue of AVP for competition binding experiments). Non-specific binding was determined in the presence of 1 μM AVP. The total assay volume was 100 μl. The plates (Corning 0 NBS plate) were incubated at room temperature for 2 hours and counted on a Mibrobeta plate counter. The tests compounds were used in concentrations of 30 μM, 10 μM, 1 μM, 300 nM, 100 nM, 10 nM, 1 nM, 100 pM, 10 pM. The competition binding data were analysed using the iterative, nonlinear, curve-fitting program, Graph pad “Prism”.
The binding affinities to the Via receptor of the sulfanilide derivatives claimed in the formula I were assessed using the above described in vitro biological assay. The values refer to the binding affinity (IC50; HM) of the example compounds according to formula I to the V1a receptor. From the values shown in Table 1 it can be derived that said test compounds according to formula I do show a significant binding to the Via receptor.

The target in another assay is T1, hOT-R (Homo sapiens, UniProt P30559).
T1 construct: expressed in transfected cells; host or cells: HEK (Human Embryonic Kidney) cells
T1 sequence (P30559 1-389): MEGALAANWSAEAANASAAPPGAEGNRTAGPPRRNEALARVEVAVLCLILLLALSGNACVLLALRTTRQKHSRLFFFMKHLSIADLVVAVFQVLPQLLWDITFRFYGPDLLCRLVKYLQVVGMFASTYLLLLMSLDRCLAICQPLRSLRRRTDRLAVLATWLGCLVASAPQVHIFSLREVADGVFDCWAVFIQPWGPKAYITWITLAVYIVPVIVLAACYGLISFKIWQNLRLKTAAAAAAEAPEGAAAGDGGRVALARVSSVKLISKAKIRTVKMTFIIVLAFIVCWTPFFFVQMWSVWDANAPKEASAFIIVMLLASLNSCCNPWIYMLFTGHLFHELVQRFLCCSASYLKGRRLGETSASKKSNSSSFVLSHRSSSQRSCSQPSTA
As to the kind of experiment: Inhibition of oxytocin mediated Ca2+-mobilization by FLIPR (HEK cells). It counts as cell-based. Particulars: fluo-4, OT 40 nM. The text has this: c) Functional Assay No. 1: Inhibition of Oxytocitn Mediated Ca^2+-Mobilization by FLIPR (Fluorescent Imaging Plate Reader)
FLIPR is a machine for fluorescence imaging using a laser that is capable of illuminating a 96-well plate and a means of simultaneously reading each well thus enabling rapid measurements on a large number of samples.
This assay intends to show the inhibition of the OT/OT-R mediated calcium mobilisation—being necessary to cause uterine contractions—by using test compounds of formula (I).
Preparing the plates: FLIPR-plates were pre-coated with PLL (Poly-L-Lysine) 10 μg/ml+0.1% gelatine to attach the HEK (Human Embryonic Kidney) cells for 30 min up to 2 days at 37° C. The cells were plated out into 96-well plates (60000 cells/well).
Labelling with fluo-4: […] fluo-4 (fluorescent marker) were dissolved in 20 μl pluronic acid (20% in DMSO). The dissolved fluo-4 was then diluted in 10 ml DMEM (Dubecco's Minimal Essential Medium-F12 medium without FCS (Fetal Calf Serum). The medium was removed from the plates, followed by one wash with DNEM-F12 medium. Now, 100 μl of the DMEM-F12 medium containing fluo-4 were added and the cells incubated for 1.5-2 h (HEK-cells). The cells now contain the fluorescent marker.
Buffer: 145 mM NaCl, 5 mM KCl, 1 mM MgCl2, 10 mM Hepes, 10 mM Glucose, EGTA (Ethylene-bis oxyethylene nitrilo tetraacetic acid). Adjust to pH 7.4.
Performance of the assay: A minimum of 80 μl/well of antagonists (5×) in the above buffer (1×) were prepared (96-well plates). The antagonists were added to the well-plates at different concentrations (30 μM, 10 μM, 1 μM, 300 nM, 100 nM, 10 nM, 1 nM, 100 pM, 10 pM).
OT is added at a concentration of 40 nM.
The fluorescent marker being sensitive to the amount of Ca^2+ mobilized within the cell may be quantified by the FLIPR machine.
The activities of the sulfanilide derivatives according to formula I were assessed using the above described in vitro biological assay. The values refer to the capacity of the example compounds according to formula I to effectively antagonize oxytocin-induced intracellular Ca^2+-mobilization mediated by the oxytocin receptor.

Assay [1] concerns oxytocin-induced uterine contractions in the rat. As to the kind of experiment: In vivo model for inhibition of uterine contractions. Particulars: anaesthetised DES-treated non-pregnant female rat, route not given. As for the experimental part:
f) In Vivo Model for Inhibition of Uterine Contractions
The assay intends to show the biological effect of tested compounds in an in vivo model of preterm labor, premature birth.
Non-pregnant Charles River CD(SD) BR female rats (9-10 weeks old, 200-250 g) were treated at 18 and 24 hours before the experiment with 250 μg/kg, i.p. diethylstilbestrol (DES). For the assay, the animal was anaesthetised by urethane (1.75 g/kg, i.p.) and placed on an homeothennic operating table. The trachea was isolated and cannulated with a suitable polyethylene (PE) tubing. A midline incision at the hypogastrium level was made and one uterine horn exposed, its cephalic end cannulated with a PE240 tubing and, after filling the internal cavity with 0.2 ml of sterile physiological saline, connected to a “Gemini” amplifying/recording system via a P231D Gould Statham pressure transducer. For the i.v. route of administration of the test compounds, one jugular vein was isolated and cannulated with a PE60 tubing connected to a butterfly needle to allow the administration by a dispensing syringe. In the case of intraduodenal administration of the test compounds, the duodenum was isolated and similarly cannulated through a small incision in its wall. One carotid artery was also isolated and cannulated with PE60 catheter and connected to a suitable syringe for blood sample collection (see below). After a stabilization period, the same dose of oxytocin was repeatedly injected intravenously at 30-min intervals. […] Further injections of the same dose of oxytocin were then made for a suitable time after treatment to assess inhibitory effects of the compounds under study. The contractile response of the uterus to oxytocin was quantified by measuring the intra-uterine pressure and the number of contractions. The effect of the reference and test compounds were evaluated by comparing pre- and post-treatment pressure values. In addition, at 2, 30, 90 and 210 minutes after test compound administration, a 0.5-ml blood sample was withdrawn from the cannulated carotid artery of each experimental animal. Plasma was obtained by standard laboratory procedure and the resulting samples were stored at −20° C.
The activities of the sulfanilide derivatives claimed in the Formula I were assessed using the above described in vivo biological assay. The values refer to the capacity of the example compound according to Formula I to effectively antagonize oxytocin-induced uterine contractions in the rat.

Another assay addresses T2, hOT receptor (Homo sapiens, UniProt P30559).
T2 construct: expressed in transfected cells; host or cells: HEK293EBNA cells (membranes)
T2 sequence (P30559 1-389): T1 sequence (P30559 1-389)
As to the kind of experiment: In vitro competition binding assay on hOT receptor with scintillating proximity assay. Particulars: membranes from HEK293EBNA cells expressing hOT receptor; radiolabel [125I]-OVTA; SPA; read-out: Binding Affinity Human OT-R Ki. As for the experimental part: a) In Vitro Competition Binding Assay on hOT Receptor with Scintillating Proximity Assay (Pharmaceutical Manufacturing International, 1992, p. 49-53 by Cook, N. D. et al)
This assays allows to determine the affinity of the test compounds for the OT receptor. Membranes from HEK293EBNA cells expressing the hOT receptor were resuspended in buffer containing 50 mM Tris-HCl, pH 7.4, 5 mM MgCl2 and 0.1% BSA (w/v). The membranes (2-4 μg) were mixed with 0.1 mg wheat-germ aglutinin (WGA) SPA bead (type A) and 0.2 nM of the radiolabel [^125I]-OVTA (OVTA being […] and is an analogue of OT for competition binding experiments). Non-specific binding was determined in the presence of 1 μM Oxytocin. The total assay volume was 100 μl. The plates (Corning (D NBS plate) were incubated at room temperature for 30 min and counted on a Mibrobeta plate counter. The tests compounds were used in concentrations of 30 μM, 10 μM, 1 μM, 300 nM, 100 nM, 10 nM, 1 nM, 100 pM, 10 pM. The competition binding data were analysed using the iterative, nonlinear, curve-fitting program, “Prism”.
The binding affinities to the oxytocin receptor of the sulfanilide derivatives claimed in the formula I were assessed using the above described in vitro biological assay. The values refer to the binding affinity (IC50; μM) of the example compounds according to formula I to the Oxytocin receptor. From the values shown in Table 1 it can be derived that said test compounds according to formula I do show a significant binding to the oxytocin receptor.

Chain of hV1a (P37288 whole entry): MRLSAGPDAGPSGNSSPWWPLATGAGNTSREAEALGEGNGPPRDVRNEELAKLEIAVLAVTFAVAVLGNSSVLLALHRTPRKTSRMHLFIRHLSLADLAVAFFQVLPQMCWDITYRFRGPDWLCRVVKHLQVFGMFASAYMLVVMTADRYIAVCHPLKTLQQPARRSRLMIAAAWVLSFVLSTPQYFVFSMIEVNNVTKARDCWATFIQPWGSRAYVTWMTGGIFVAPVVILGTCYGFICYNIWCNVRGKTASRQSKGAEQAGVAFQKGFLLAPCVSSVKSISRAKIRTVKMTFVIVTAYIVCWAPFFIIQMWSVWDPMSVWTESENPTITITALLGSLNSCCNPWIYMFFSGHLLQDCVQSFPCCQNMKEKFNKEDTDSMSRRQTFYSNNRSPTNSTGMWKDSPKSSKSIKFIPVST

For the compound `COc1ccc(N(CC(=O)Nc2ccc(C)cc2C)S(=O)(=O)c2ccc(OC)c(OC)c2)cc1` [2-[(3,4-Dimethoxy-benzenesulfonyl)-(4-methoxy-phenyl)amino]-N-(2,4-dimethyl-phenyl)-acetamide], at hV1a, the Ki was 0.135 µM.

As for `COc1ccc(N(CC(=O)NCCSc2ccccn2)S(=O)(=O)c2ccc(C)cc2)cc1` [2-[(4-Methoxy-phenyl)-(toluene-4-sulfonyl)-amino]-N-[2-(pyridin-2-ylsulfanyl)-ethyl]-acetamide], the Ki at hV1a was determined as 0.43 µM.

`COc1ccc(N(CC(=O)Nc2ccc(C)cc2C)S(=O)(=O)c2ccccc2)cc1` [2-[Benzenesulfonyl-(4-methoxy-phenyl)-amino]-N-(2,4-dimethyl-phenyl)-acetamide]: the Ki at hV1a is 0.045 µM.

Regarding `O=C(CN(c1ccc(Cl)cc1)S(=O)(=O)c1ccc(OCCN2CCOCC2)cc1)NN=C1C(=O)Nc2ccccc21` [Example 55, N-(4-chlorophenyl)-4-[2-(4-morpholinyl)ethoxy]-N-{2-oxo-2-[2-(2-oxo-1,2-dihydro-3H-indol-3-ylidene)hydrazino]ethyl}benzenesulfonamide], on hOT-R, the 50% inhibitory concentration (IC50) turned out to be 0.007 µM. Also, the “% Reduction of Uterine Contraction” value stood at 4.3 ± 1.7% in assay [1] (dose 0.3 mg/kg); 18.2 ± 3.7% in assay [1] (dose 1 mg/kg); 39.8 ± 5.1% in assay [1] (dose 3 mg/kg); 41.7 ± 12.5% in assay [1] (dose 10 mg/kg); 71.3 ± 6.4% in assay [1] (dose 30 mg/kg). On hOT receptor, the inhibitory constant (Ki) amounted to 0.0008 µM.

Consider `CN(C)CCCOc1ccc(S(=O)(=O)N(CC(=O)N/N=C2\C(=O)Nc3ccccc32)c2ccc(Cl)cc2)cc1` [Example 67, N-(4-chlorophenyl)-4-[3-(dimethylamino)propoxy]-N-{2-oxo-2-[(2Z)-2-(2-oxo-1,2-dihydro-3H-indol-3-ylidene)hydrazino]ethyl}benzenesulfonamide], for which, on hOT-R, half-maximal inhibition (IC50) required 0.0136 µM. The “% Reduction of Uterine Contraction” value in assay [1] (dose 0.3 mg/kg) stood at 9.3 ± 2.5%; in assay [1] (dose 1 mg/kg), 20.8 ± 2.2%; in assay [1] (dose 3 mg/kg) it was 34.4 ± 3.9%; in assay [1] (dose 10 mg/kg), 57.1 ± 4.8%; in assay [1] (dose 30 mg/kg), 67.4 ± 7.1%. In addition, at hOT receptor, the Ki came to 0.0006 µM.

At hOT-R, `CN(C)CCCNC(=O)CCc1ccc(S(=O)(=O)N(CC(=O)N/N=C2\C(=O)Nc3ccccc32)c2ccc(Cl)cc2)cc1` [Example 71, 3-{4-[(4-chloro{2-oxo-2-[(2Z)-2-(2-oxo-1,2-dihydro-3H-indol-3-ylidene)hydrazino]ethyl}anilino)sulfonyl]phenyll}-N-[3-(dimethylamino)propyl]propanamide] came in with an IC50 of 0.014 µM. The inhibition constant Ki at hOT receptor amounted to 0.0007 µM.

In the case of `Cc1ccc(N(CC(=O)NCC(O)c2ccccc2)S(=O)(=O)c2ccc(C)cc2)cc1` (centres unmarked) [N-(2-Hydroxy-2-phenyl-ethyl)-2-[(toluene-4-sulfonyl)-p-tolyl-amino]-acetamide], on hV1a, the inhibition constant Ki amounted to 0.37 µM.

For `O=C(CN(c1cccc(Br)c1)S(=O)(=O)c1ccccc1)N/N=C/c1ccccc1O` [N-(3-Bromo-phenyl)-N-(2-hydroxy-benzylidene-hydrazinocarbonylmethyl)-benzenesulfonamide], the Ki on hV1a is 0.503 µM.

With `O=C(CN(c1ccc(Br)cc1)S(=O)(=O)c1ccccc1)N1CCc2ccccc2C1` [N-(4-Bromo-phenyl)-N-[2-(3,4-dihydro-1H-isoquinolin-2-yl)-2-oxo-ethyl]-benzenesulfonamide], at hV1a, the inhibition constant (Ki) was found to be 0.058 µM.

Consider `O=C(CN(c1ccc(Cl)cc1)S(=O)(=O)c1ccccc1)N/N=C/c1ccccc1O` [N-(4-Chloro-phenyl)-N-(2-hydroxy-benzylidene-hydrazinocarbonylmethyl)-benzenesulfonamide], for which, on hV1a, the Ki is 0.75 µM.

As a reminder, the Ki is a dissociation constant, usually derived from enzyme kinetics or from competition with a known ligand. The term IC50 denotes the point on the concentration scale where inhibition reaches its midpoint. A higher IC50 goes with a need for much substance.
